Measured values as given in patent publication US6537522B1, “Neuroprobes for mapping monoamine reuptake sites” (Amersham PLC, priority 1992, dated 2003).
Where two headings read alike, the source gives them in different places.

Assays:
[1] = biological target: T1, NET (norepinephrine transporter) (Rattus norvegicus, UniProt Q63380); test: NET assay, [3H]nisoxetine binding, rat frontoparietal cerebral cortex membranes
T1 construct: or frontoparietal cerebral cortex (for 5-HTT and NET); from tissue; host or cells: rat brain frontoparietal cerebral cortex, crude membrane fraction
T1 sequence (Q63380 1-617): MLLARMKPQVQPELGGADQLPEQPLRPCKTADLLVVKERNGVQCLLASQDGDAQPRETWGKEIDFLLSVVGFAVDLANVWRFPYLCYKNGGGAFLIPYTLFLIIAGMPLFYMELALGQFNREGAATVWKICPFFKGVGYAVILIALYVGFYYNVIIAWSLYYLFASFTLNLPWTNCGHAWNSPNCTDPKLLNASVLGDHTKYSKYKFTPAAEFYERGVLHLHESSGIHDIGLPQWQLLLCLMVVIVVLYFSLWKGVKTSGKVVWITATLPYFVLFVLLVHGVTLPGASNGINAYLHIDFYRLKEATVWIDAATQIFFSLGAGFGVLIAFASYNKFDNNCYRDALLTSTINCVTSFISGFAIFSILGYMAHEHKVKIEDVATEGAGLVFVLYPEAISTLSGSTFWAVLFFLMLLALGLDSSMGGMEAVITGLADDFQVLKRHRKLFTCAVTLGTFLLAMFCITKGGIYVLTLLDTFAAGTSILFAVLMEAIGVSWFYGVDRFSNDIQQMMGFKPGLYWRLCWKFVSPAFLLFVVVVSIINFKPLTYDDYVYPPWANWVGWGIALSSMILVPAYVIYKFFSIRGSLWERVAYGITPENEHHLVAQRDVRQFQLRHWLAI
Experimental: (§1) N-phthalimidopropyl-β-CIT (see Example 10) was analyzed as follows. Stock solutions (1 mM) of test agents were made in 95% ethanol/DMSO (1/1, v/v) and stored at −5° C. until used by diluting in a large excess of each assay buffer. Agents are tested at six concentrations in duplicate, with a crude membrane fraction of homogenates of rat brain corpus striatum (for DAT assays) in Tris-citrate buffer (pH 7.4) containing Na^+ ([…]) and Mg^2+ (4 mM) or frontoparietal cerebral cortex (for 5-HTT and NET) in 50 mM Tris-HCl buffer (pH 7.4) containing Na^+ ([…]) and K^+ (5 mM) following methods reported by Neumeyer et al., J. Med. Chem. 37, 1558-1561 (1991), the whole of which is incorporated by reference herein.

dopamine reuptake sites = dopamine reuptake sites (Papio anubis, UniProt A0A096MN61); test: displacement of [3H]CFT binding in primate striatum tissue homogenates; set-up: species or system baboon; conditions: mean ± SEM (n)
Chain of dopamine reuptake sites (A0A096MN61 1-620): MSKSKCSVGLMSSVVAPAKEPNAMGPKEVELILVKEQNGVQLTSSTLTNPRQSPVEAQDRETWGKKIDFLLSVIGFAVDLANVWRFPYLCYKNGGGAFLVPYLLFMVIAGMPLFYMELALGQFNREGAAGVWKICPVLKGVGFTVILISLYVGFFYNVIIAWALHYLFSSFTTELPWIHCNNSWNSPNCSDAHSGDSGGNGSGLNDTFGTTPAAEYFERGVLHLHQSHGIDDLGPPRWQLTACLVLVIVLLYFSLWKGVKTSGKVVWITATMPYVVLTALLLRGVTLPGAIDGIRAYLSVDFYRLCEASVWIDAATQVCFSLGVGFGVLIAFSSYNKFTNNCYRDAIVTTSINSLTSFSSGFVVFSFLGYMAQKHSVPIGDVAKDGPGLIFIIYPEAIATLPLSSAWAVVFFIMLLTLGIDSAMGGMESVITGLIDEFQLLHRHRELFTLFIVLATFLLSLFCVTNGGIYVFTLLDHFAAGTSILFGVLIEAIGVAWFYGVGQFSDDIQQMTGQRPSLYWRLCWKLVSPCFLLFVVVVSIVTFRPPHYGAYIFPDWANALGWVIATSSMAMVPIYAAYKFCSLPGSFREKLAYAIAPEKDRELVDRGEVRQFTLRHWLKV
From the text: Values represent means±SEM (of n experiments).

serotonin reuptake sites = biological target: T2, serotonin reuptake sites (Rattus norvegicus, UniProt P31652); test: displacement of [3H]paroxetine binding in rat cortical membrane homogenates; conditions: for displacement of [3H]paroxetine Hill slope (nH): mean ± SEM (n)
T2 construct: homogenates prepared from rat cortical membranes; from tissue; host or cells: rat cortical membranes
T2 sequence (P31652 whole entry): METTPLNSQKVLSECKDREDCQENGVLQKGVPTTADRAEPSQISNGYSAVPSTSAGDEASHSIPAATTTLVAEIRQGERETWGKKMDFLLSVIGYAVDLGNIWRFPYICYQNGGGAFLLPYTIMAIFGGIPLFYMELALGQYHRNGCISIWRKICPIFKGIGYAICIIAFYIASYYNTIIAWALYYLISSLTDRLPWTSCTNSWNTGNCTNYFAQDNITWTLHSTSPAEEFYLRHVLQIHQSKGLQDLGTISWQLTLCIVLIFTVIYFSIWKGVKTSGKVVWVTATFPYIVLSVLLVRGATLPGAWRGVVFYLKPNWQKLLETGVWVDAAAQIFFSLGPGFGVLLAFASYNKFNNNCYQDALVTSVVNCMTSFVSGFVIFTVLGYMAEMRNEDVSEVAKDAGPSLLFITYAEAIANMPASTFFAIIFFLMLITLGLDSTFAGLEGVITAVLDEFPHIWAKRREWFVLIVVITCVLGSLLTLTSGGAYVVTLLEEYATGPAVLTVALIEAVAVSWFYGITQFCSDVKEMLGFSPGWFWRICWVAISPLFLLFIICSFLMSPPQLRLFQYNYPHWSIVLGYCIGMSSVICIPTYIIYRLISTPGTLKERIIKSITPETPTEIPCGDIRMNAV

5-HTT (5-HT transporter) = biological target: T3, 5-HTT (5-HT transporter) (Rattus norvegicus, UniProt P31652); test: 5-HTT assay, [3H]paroxetine binding, rat frontoparietal cerebral cortex membranes
T3 construct: or frontoparietal cerebral cortex (for 5-HTT and NET); from tissue; host or cells: rat brain frontoparietal cerebral cortex, crude membrane fraction
T3 sequence (P31652 whole entry): as above
Experimental: as §1

[2] = tested on: dopamine and serotonin reuptake sites; conditions: within 60-120 min
Experimental: Six SPECT experiments were performed in four female baboons (10 kg Papio anubis) under isoflurane anesthesia. […] Data were decay-corrected to the time of injection.

[3] = tested on: dopamine and serotonin reuptake sites; test: SPECT regional brain activity after i.v. [123I]-β-CIT (five experiments); assay type: in vivo, baboon (Papio anubis)
From the text: Data were decay corrected to time of injection.

[4] = tested on: dopamine and serotonin reuptake sites; test: SPECT regional brain activity after injection of [123I]-β-CIT (six experiments); assay type: in vivo, baboon (Papio anubis)
Experimental: The final product was formulated in 6 ml sterile saline containing 5-10% ethanol.
Data were decay-corrected to the time of injection.
The highest activities were found in the striatal region and reached peak levels at 179±9 min (n=6) post injection (p.i.) (FIG. 2). Striatal activity was monitored in two animals for an additional 190 and […] post peak values.

[5] = whole body scanning, thyroid uptake (in vivo deiodination); conditions: indicative of slow in vivo deiodination
From the text: The majority of striatal activity was associated with dopamine reuptake sites, and the majority of midbrain activity was associated with serotonin reuptake sites, which is consistent with the densities of these monoamine transporters measured in postmortem primate brains. Brain washout of activity was relatively slow, in part because of the high affinities of β-CIT for the monoamine transporters.

[6] = tested on: dopamine and serotonin reuptake sites; conditions: 3 μmol/kg IV at 200 min pi, during 100 min after injection
Experimental: With reference to FIG. 4, five SPECT (single photon emission computer tomography) experiments were performed with four female baboons (Papio anubis, 10-12 kg) under isoflurane anesthesia. […] Serial 1-2 min images were reconstructed assuming uniform attenuation equal to that of water in an ellipse drawn around the brain. Data were decay corrected to time of injection.
Activity is expressed in arbitrary units known from phantom studies to be linear with radioactive concentrations.

[7] = biological target: T4, DAT (dopamine transporter) (Rattus norvegicus, UniProt P23977); test: DAT assay, [3H]GBR-12935 binding, rat brain corpus striatum membranes; conditions: for selectivity: DAT vs 5-HTT / selectivity: DAT vs NET: ratio of Ki values
T4 construct: a crude membrane fraction of homogenates of rat brain corpus striatum (for DAT assays); from tissue; host or cells: rat brain corpus striatum, crude membrane fraction
T4 sequence (P23977 whole entry): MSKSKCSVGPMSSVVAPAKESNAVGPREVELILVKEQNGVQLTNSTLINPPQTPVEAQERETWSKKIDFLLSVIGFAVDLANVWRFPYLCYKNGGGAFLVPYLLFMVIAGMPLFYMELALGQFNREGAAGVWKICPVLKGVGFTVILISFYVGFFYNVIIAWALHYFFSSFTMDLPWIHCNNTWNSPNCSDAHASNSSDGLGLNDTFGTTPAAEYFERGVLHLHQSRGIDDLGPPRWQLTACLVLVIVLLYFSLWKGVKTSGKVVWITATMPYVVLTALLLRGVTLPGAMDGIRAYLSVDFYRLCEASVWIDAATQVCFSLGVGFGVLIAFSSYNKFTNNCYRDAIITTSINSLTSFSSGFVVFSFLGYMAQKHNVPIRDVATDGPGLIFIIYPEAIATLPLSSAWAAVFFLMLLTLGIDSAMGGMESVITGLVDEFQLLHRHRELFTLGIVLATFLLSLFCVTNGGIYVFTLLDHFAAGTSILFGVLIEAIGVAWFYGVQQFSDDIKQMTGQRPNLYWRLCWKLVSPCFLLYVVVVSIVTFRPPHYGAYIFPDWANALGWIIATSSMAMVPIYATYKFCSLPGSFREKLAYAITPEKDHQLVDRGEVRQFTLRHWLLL
Experimental: as §1

[8] = 0.4 μmol/kg i.v. at 180 min p.i.
[9] = at time of peak striatal uptake, n=6

## COC(=O)[C@H]1[C@@H](c2ccc(F)cc2)C[C@@H]2CC[C@H]1N2C [compound 2, 2β-carbomethoxy-3β-(4-fluorophenyl)tropane, reference compound]
[1]
  Ki: 635 ± 110 nM
Dopamine reuptake sites
  displacement of [3H]CFT Hill slope (nH): 0.75 ± 0.01 (3)
Serotonin reuptake sites
  IC50: 479 ± 59 nM
Serotonin reuptake sites; rat cortical membranes
  displacement of [3H]paroxetine Hill slope (nH): 1.34 ± 0.22 (3)
5-HTT (5-HT transporter)
  Ki: 181 ± 21 nM
[2]; [8]
  displacement of midbrain [123I]-β-CIT levels: 72%
  displacement of striatal [123I]-β-CIT levels: 57%
[2]; 2.0 μmol/kg at 298 min p.i.
  cumulative displacement of midbrain [123I]-β-CIT levels: 91%
  cumulative displacement of striatal [123I]-β-CIT levels: 83%

## COC(=O)C1C(c2ccc([123I])cc2)CC2CCC1N2C (stereo not drawn) [[^123I]-β-CIT, [^123I]-2-β-Carbomethoxy-3-β-(4-iodophenyl)tropane]
[3]; at time of striatal peak
  striatal to cerebellar ratio: 9.8±1.6
[3]; control animal followed an additional 200 min
  decrease of striatal activity from striatal peak to end of experiment: 0%
[3]; control animal followed an additional 260 min
  decrease of striatal activity from striatal peak to end of experiment: 12%
[3]; midbrain, n=5
  time of peak midbrain levels pi: 43 ± 5 min
[3]; striatal region, mean ± SEM
  time of peak striatal uptake postinjection: 154 ± 19 min
[4]; [9]
  ratio of regional brain activity, cerebellum (striatum 100%): 10.0±1.5%
  ratio of regional brain activity, frontal lobe (striatum 100%): 10.3±1.0%
  ratio of regional brain activity, hypothalamus (striatum 100%): 38.1±5.2%
  ratio of regional brain activity, occipital lobe (striatum 100%): 13.5±0.8%
  ratio of regional brain activity, temporo-parietal lobes (striatum 100%): 14.3±2.0%
[4]; midbrain, n=3
  washout of midbrain activity t½: 294 ± 59 min
[4]; midbrain, n=6
  time of peak midbrain activity post injection: 45 ± 16 min
[4]; one animal, remaining 190 min of the experiment
  striatal activity after peak: virtually unchanged
[4]; second animal, exponential fit, r=0.92
  washout of striatal activity t½: 27 h
[4]; striatum, n=6, mean ± S.E.M.
  time of peak striatal activity post injection: 179 ± 9 min
[5]
  thyroid uptake: low

## CNC1CC(c2ccc(Cl)c(Cl)c2)c2ccccc21 (stereo not drawn) [Lu 19-005, indatraline]
[6]
  decrease of striatal [123I]-β-CIT activity: 65%

## COC(=O)[C@H]1[C@@H](c2ccc(I)cc2)C[C@@H]2CC[C@H]1N2C [compound 3a, 2β-carbomethoxy-3β-(4-iodophenyl)tropane]
[1]
  Ki: 2.8 ± 0.4 nM
Dopamine reuptake sites
  displacement of [3H]CFT Hill slope (nH): 0.79 ± 0.04 (3)
Serotonin reuptake sites
  IC50: 3.78 ± 0.53 nM
Serotonin reuptake sites; rat cortical membranes
  displacement of [3H]paroxetine Hill slope (nH): 0.82 ± 0.08 (6)
5-HTT (5-HT transporter)
  Ki: 0.46 ± 0.06 nM
[7]
  Ki: 1.4 ± 0.2 nM
  selectivity: DAT vs 5-HTT: 0.320
  selectivity: DAT vs NET: 2.00

## COC(=O)C1C(c2ccc(I)cc2)CC2CCC1N2C (stereo not drawn) [compound 3b, 2-α-Carbomethoxy-3-β-iodophenyltropane]
Dopamine reuptake sites
  displacement of [3H]CFT Hill slope (nH): 0.70 ± 0.07 (2)
Serotonin reuptake sites; rat cortical membranes
  displacement of [3H]paroxetine Hill slope (nH): 0.73 ± 0.04 (2)
Serotonin reuptake sites; rat cortical membranes, mean ± SEM, read-out: displacement of [3H]paroxetine IC50
  IC50: 210 ± 86 nM

## COC(=O)[C@H]1[C@@H](c2ccc(I)cc2)C[C@@H]2CC[C@H]1N2CCCN1C(=O)c2ccccc2C1=O [Example 10, N-phthalimidopropyl-β-CIT]
[1]; [3H]nisoxetine 0.8 nM, rat cerebral cortex, 180 min 4° C., read-out: affinity (Ki) NET
  Ki: 73.7 ± 11.6 nM
5-HTT (5-HT transporter); [3H]paroxetine 0.2 nM, rat cerebral cortex, 60 min 20° C., read-out: affinity (Ki) 5-HTT
  Ki: 0.59 ± 0.07 nM
[7]; [3H]GBR-12935 0.4 nM, rat corpus striatum, 45 min 4° C., read-out: affinity (Ki) DAT
  Ki: 9.1 ± 1.1 nM
[7]
  selectivity: DAT vs 5-HTT: 0.065
  selectivity: DAT vs NET: 8.10
